Measured values as given in publication PMC8954792 (Viruses, 2022).

Key:
[1] = Cytotoxicity (CCK-8) on Huh-7 cells; settings: human
[2] = test system: authentic SARS-CoV-2 WT (nCoV-SH01); experiment: microbe, parasite or virus in culture; format: cell-based; settings: Severe acute respiratory syndrome coronavirus 2, Vero C1008
[3] = test system: H7N9 PsV; experiment: microbe, parasite or virus in culture; format: cell-based, influenza virus; settings: Influenza A virus, H7N9, MDCK, read-out: IC50 H7N9
[4] = Cytotoxicity (CCK-8) on hACE2-293T cells; settings: human
[5] = test system: cell-free SARS-CoV PsV; experiment: microbe, parasite or virus in culture; settings: Severe acute respiratory syndrome coronavirus
[6] = test system: MERS-CoV PsV
[7] = test system: SARS-CoV PsV
[8] = test system: SARS-CoV PsV; experiment: microbe, parasite or virus in culture; settings: Severe acute respiratory syndrome coronavirus
[9] = test system: cell-free SARS-CoV PsV
[10] = test system: H5N1 PsV; experiment: microbe, parasite or virus in culture; format: cell-based, influenza virus; settings: Influenza A virus, H5N1, MDCK, read-out: IC50 H5N1
[11] = test system: pseudotyped SARS-CoV-2 Gamma (P.1); experiment: microbe, parasite or virus in culture; format: cell-based; settings: Severe acute respiratory syndrome coronavirus 2, Caco-2
[12] = test system: pseudotyped SARS-CoV-2 Alpha (B.1.1.7); experiment: microbe, parasite or virus in culture; format: cell-based; settings: Severe acute respiratory syndrome coronavirus 2, Caco-2
[13] = test system: cell-free MERS-CoV PsV; experiment: microbe, parasite or virus in culture; settings: Middle East respiratory syndrome-related coronavirus, Huh-7
[14] = test system: cell-free SARS-CoV-2 PsV; experiment: Inactivation of cell-free SARS-CoV-2 PsV; format: cell-based; settings: Severe acute respiratory syndrome coronavirus 2
[15] = test system: pseudotyped SARS-CoV-2 Omicron (B.1.1.529); experiment: microbe, parasite or virus in culture; format: cell-based; settings: Severe acute respiratory syndrome coronavirus 2, Caco-2
[16] = test system: SARS-CoV-2 PsV; experiment: microbe, parasite or virus in culture; format: cell-based; settings: Severe acute respiratory syndrome coronavirus 2
[17] = test system: MERS-CoV PsV; experiment: microbe, parasite or virus in culture; settings: Middle East respiratory syndrome-related coronavirus, Huh-7
[18] = test system: pseudotyped SARS-CoV-2 Beta (B.1.351); experiment: microbe, parasite or virus in culture; format: cell-based; settings: Severe acute respiratory syndrome coronavirus 2, Caco-2
[19] = in vitro; settings: dog
[20] = target: HIV-1 6-HB (Human immunodeficiency virus type 1, UniProt P04578); experiment: Inhibition of HIV-1 6-HB formation (ELISA); format: biochemical; settings: HIV-1 6-HB formation measured by ELISA
[21] = test system: SARS-CoV-2 PsV; format: cell-based
[22] = test system: NiV; experiment: microbe, parasite or virus in culture; format: cell-based, Nipah virus; settings: Henipavirus nipahense, U-87 MG
[23] = test system: authentic ZIKV PRVABC59 (2015/Puerto Rico); experiment: microbe, parasite or virus in culture; format: cell-based; settings: Zika virus, Vero C1008
[24] = test system: cell-free MERS-CoV PsV
[25] = test system: VSV PsV; experiment: microbe, parasite or virus in culture; format: cell-based, vesicular stomatitis virus; settings: Vesicular stomatitis virus, Huh-7
[26] = test system: EBOV (Sudan); experiment: microbe, parasite or virus in culture; format: cell-based, Ebola virus; settings: Zaire ebolavirus, Huh-7
[27] = test system: authentic EV71; experiment: CPE reduction assay, authentic EV71; format: cell-based, human enterovirus 71 virus; settings: RD cells
[28] = test system: LASV; experiment: organism not typed; format: cell-based, Lassa fever virus; settings: Huh-7
[29] = test system: EBOV (Zaire); experiment: microbe, parasite or virus in culture; format: cell-based, Ebola virus; settings: Zaire ebolavirus, Huh-7
[30] = test system: HPV PsV; format: cell-based, human papilloma virus
[31] = test system: authentic HCoV-OC43; experiment: CPE reduction assay, authentic HCoV-OC43; format: cell-based; settings: Betacoronavirus 1; HCoV-OC43 infection, RD cells, CCK-8
[32] = test system: Vero E6 cells; format: cell-based

HIV-1 6-HB, sequence (P04578 536-581, added parts left off): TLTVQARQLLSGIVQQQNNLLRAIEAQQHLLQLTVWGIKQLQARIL
HIV-1 6-HB, sequence (P04578 536-581, added parts left off): as above

Structure (SMILES) | CC50 at 48 h [1] [nM] | IC50 [2] [nM] | IC50 [3] [nM] | CC50 at 48 h [4] [nM] | EC50 [5] [nM] | SI CC50/IC50 [6] | SI CC50/IC50 [7] | IC50 [8] [nM] | SI CC50/EC50 [9] | IC50 [10] [nM] | IC50 [11] [nM] | IC50 [12] [nM] | EC50 [13] [nM] | EC50 [14] [nM] | IC50 [15] [nM] | IC50 [16] [nM] | IC50 [17] [nM] | IC50 [18] [nM] | CC50 [19] [nM] | inhibition of SARS-CoV-2 PsV infection after unbound compound washed from cells [21] | further results
O=C(O)c1cc(-c2ccc(/C=C3\SC(=S)N(CCc4ccc(OCc5ccc(F)cc5)cc4)C3=O)o2)ccc1Cl [FD010] | 44700 ± 1260 | 40 | 5880 ± 610 | 20400 ± 1000 | 190 ± 30 | 372.25 | 70.41 | 290 ± 30 | 107.47 | 970 ± 210 | 870 | 1040 | 40 ± 10 | 90 | 2880 | 360 | 120 ± 10 | 1550 | > 50000 | – | –
O=C(O)c1cc(-c2ccc(/C=C3\SC(=S)N(CCc4ccc(OCC5CC5)cc4)C3=O)o2)ccc1Cl [FD012] | 18600 ± 350 | 410 | 230 ± 20 | 12300 ± 340 | 120 ± 10 | 169.27 | – | 20 ± 10 | 102.50 | 150 ± 10 | 250 | 350 | 50 ± 10 | 40 | 770 | 30 | 110 ± 10 | 270 | 41700 | not effective in inhibiting viral infection after washing | IC50 [20]: 50100 nM; IC50 [22]: 70 ± 10 nM; IC50 [23]: 910 nM; SI CC50/EC50 [24]: 372.40; IC50 [25]: 5 nM; IC50 [26]: 190 ± 20 nM; inhibitory activity relative to FD001 [7]: ~10 fold; inhibition of infection of authentic EV71 [27]: could not inhibit; IC50 [28]: 320 ± 40 nM; IC50 [29]: 90 ± 20 nM; inhibition of infection of nonenveloped HPV PsV [30]: could not inhibit; IC50 [31]: 110 nM; fluorescence intensity of treated cells (binding to cells) [32]: positively correlated with compound concentration
O=C(O)c1cc(-c2ccc(/C=C3\SC(=S)N(CCc4ccc(OCc5ccsc5)cc4)C3=O)o2)ccc1Cl [FD013] | 30900 ± 630 | 30 | 3540 ± 890 | 18600 ± 230 | 100 ± 10 | 618.00 | 372.40 | 50 ± 10 | 186.20 | 260 ± 20 | 410 | 400 | 30 ± 10 | 70 | 980 | 120 | 50 ± 10 | 310 | > 50000 | not effective in inhibiting viral infection after washing | –
CCC(CC)COC(=O)[C@H](C)N[P@](=O)(OC[C@H]1O[C@@](C#N)(c2ccc3c(N)ncnn23)[C@H](O)[C@@H]1O)Oc1ccccc1 [Remdesivir, remdesivir, reference compound] | – | 1090 | – | – | – | – | – | – | – | – | – | – | – | – | – | – | – | – | – | – | –
